Assay: xn = mol fraction of the nth substance listed
Details: Liquid, Time-dependent Raman spectra, x1 = 0

C [methane] + O
binary diffusion coefficient (273 K, 20000 kPa): 7.02e-10 m2/s
binary diffusion coefficient (298 K, 5000 kPa): 1.61e-09 m2/s
binary diffusion coefficient (298 K, 10000 kPa): 1.63e-09 m2/s
binary diffusion coefficient (298 K, 20000 kPa): 1.64e-09 m2/s
binary diffusion coefficient (298 K, 30000 kPa): 1.6e-09 m2/s
binary diffusion coefficient (298 K, 40000 kPa): 1.62e-09 m2/s
binary diffusion coefficient (313 K, 20000 kPa): 2.39e-09 m2/s
binary diffusion coefficient (353 K, 5000 kPa): 4.85e-09 m2/s
binary diffusion coefficient (353 K, 10000 kPa): 5e-09 m2/s
binary diffusion coefficient (353 K, 20000 kPa): 4.98e-09 m2/s
binary diffusion coefficient (353 K, 30000 kPa): 4.79e-09 m2/s
binary diffusion coefficient (353 K, 40000 kPa): 4.8e-09 m2/s
binary diffusion coefficient (393 K, 5000 kPa): 8.59e-09 m2/s
binary diffusion coefficient (393 K, 10000 kPa): 8.7e-09 m2/s
binary diffusion coefficient (393 K, 20000 kPa): 8.68e-09 m2/s
binary diffusion coefficient (393 K, 30000 kPa): 8.45e-09 m2/s
binary diffusion coefficient (393 K, 40000 kPa): 8.08e-09 m2/s
binary diffusion coefficient (433 K, 20000 kPa): 1.25e-08 m2/s
binary diffusion coefficient (473 K, 20000 kPa): 1.71e-08 m2/s

Reference: the NIST ThermoML archive (doi:10.1016/j.fluid.2013.09.051)
